Type in all cases: cell-based, rat
One test has as its system caspase 3. Description: Caspase 3 activity monitoring in cardiac myoblasts. The settings on record: ApoO+ cells incubated with palmitate, with or without added agent, FIG. 5A, 5L, 6E, 6F. The method, then:
Palmitate preparation and caspase 3 activity measurement were performed as previously described (Hickson-Bick, Buja et al. 2000; Hirota, Otabe et al. 2006).

The test system of test [1] is long fatty acyl CoA synthetase. Put plainly: Palmitoyl-coA synthase activity in H9c2 cardiac myoblasts. The settings on record: control and ApoO+ H9c2 cardiac myoblasts; FIG. 7H.
Test [2] relates to H9c2 cardiac myoblasts. Description: Transmission electron microscopy of palmitate treated cells. The settings on record: H9c2 (control) cardiac myoblasts treated with palmitate; not shown.
Test [3] has as its system H9c2 cardiac myoblasts. Description: Oxygen flow measurement (cell respiration). The settings on record: ApoO+ H9c2 cardiac myoblasts; CCCP 4 to 16 μM cumulative doses; FIG. 8A.
Another test deals with AMPK. Description: Western blot analysis of AMPK phosphorylation. The settings on record: ApoO+ cardiac myoblasts, with or without palmitate; FIG. 6G. For orientation: Immunoblotting shows a protein as a band on a membrane.

Turning to `CCCC[C@@H](C)[C@@H](OC(=O)C[C@@H](CC(=O)O)C(=O)O)[C@H](C[C@@H](C)C[C@H](O)CCCC[C@@H](O)C[C@H](O)[C@H](C)N)OC(=O)C[C@@H](CC(=O)O)C(=O)O` [Fumonisin B1], the “caspase 3 activity” value in the test with caspase 3 is recorded as “lowered caspase 3 activity”; in the test with caspase 3 (listed as fumonisine B), “partially attenuated”.
In the case of `O=c1cc(N2CCOCC2)oc2c(-c3ccccc3)cccc12` [LY294002], in the test with caspase 3, the “caspase 3 activity” value is given as “no significant effect”.
For `CCC/C=C/C/C=C/C=C/C=N/NN=O` [triacsin C], in test [1], the palmitoyl-coA activity entry is on record as “inhibited”.
Regarding `CCCCCCCCCCCCCCCC(=O)O` [palmitate], the “mitochondrial alteration by transmission electron microscopy” value with H9c2 cardiac myoblasts [2] is “no significant effect”.
For `N#CC(C#N)=NNc1cccc(Cl)c1` [CCCP, Carbonyl cyanide m-chlorophenyl hydrazone], the oxygen consumption result with H9c2 cardiac myoblasts [3] is “further increased”.
`NC(=O)c1ncn([C@@H]2O[C@H](CO)[C@@H](O)[C@H]2O)c1N` [AICAR, 5-Aminoimidazole-4-carboxyamide ribonucleoside]: the “caspase 3 activity” value in the test on caspase 3 is listed as “significantly reduced”. Besides, the AMPK phosphorylation result in the test with AMPK is given as “increased AMPK phosphorylation”.

(Values after patent US20150368715A1, “DIAGNOSTIC AND TREATMENT OF CHRONIC HEART FAILURE” (Institut National de la Sante et de la Recherche Medicale …, priority 2010, published 2015).)
